US9925263B2, “Liquid pharmaceutical formulations for injection comprising procaine and uses thereof” (EAGLE BIOLOGICS, INC., priority 2013, dated 2018)
Counter-ions that a name gives are not always drawn. Blank lines part the entries; values can stand above or below the compound they belong to.

Key:
biosimilar RITUXAN® = test: Viscosity of aqueous solutions of biosimilar RITUXAN® with viscosity-lowering agents; details: 25° C.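 Also: absolute viscosity of aqueous antibody solutions determined by microfluidic viscometry (mVROC chip, 50 micron channel) at several flow rates after 5 min equilibration, mean of at least three readings.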
Protocol: All viscosities of well-mixed aqueous mAb solutions were measured using either a mVROC microfluidic viscometer (RheoSense) or a DV2T cone and plate viscometer (Brookfield; “C & P”) after a 5 minute equilibration at 25° C. […] The mVROC viscometer was equipped with an “A” or “B” chip, each manufactured with a 50 micron channel. Typically, 0.10 mL of protein solution was back-loaded into a gastight microlab instrument syringe (Hamilton; 100 μL), affixed to the chip, and measured at multiple flow rates, approximately 20%, 40%, and 60% of the maximum pressure for each chip. […] An average absolute viscosity and standard deviation was then calculated from at least these three measurements. The C & P viscometer was equipped with a CPE40 or CPE52 spindle (cone angle of 0.8° and 3.0°, respectively) and 0.50 mL samples were measured at multiple shear rates between 2 and 400 s^−1. […] An extrapolated zero-shear viscosity was then determined from a plot of dynamic viscosity versus shear rate for the samples measured on a DV2T cone and plate viscometer. The extrapolated zero-shear viscosities reported are the average and standard deviation of at least three measurements.
Viscosities were measured using a RheoSense mVROC microfluidic viscometer equipped with an “A” or “B” chip.

biosimilar AVASTIN® = test: Viscosity of aqueous solutions of biosimilar AVASTIN® with viscosity-lowering agents; format: physicochemical
Protocol: (unless otherwise indicated).
The protein was formulated to contain either 0.25 M phosphate buffer or 0.25 M CSAL.
Subsequently, the appropriate amount of viscosity-lowering agent was added to result in a final viscosity-lowering agent concentration of 0.15-0.35 M upon reconstitution.
The viscosity-lowering agent(s) were added in an amount sufficient to give concentration upon reconstitution as specified below. In cases of combinations of agents, the concentration of each component is 0.15 M. The protein solutions were then freeze-dried.

biosimilar ERBITUX® = test: Viscosity of aqueous solutions of biosimilar ERBITUX® with viscosity-lowering agents; details: for Fold Reduction: vs phosphate buffer
Protocol: All viscosities of well-mixed aqueous mAb solutions were measured using either a mVROC microfluidic viscometer (RheoSense) or a DV2T cone and plate viscometer (Brookfield; “C & P”) after a 5 minute equilibration at 25° C. (unless otherwise indicated). The mVROC viscometer was equipped with an “A” or “B” chip, each manufactured with a 50 micron channel. Typically, 0.10 mL of protein solution was back-loaded into a gastight microlab instrument syringe (Hamilton; 100 μL), affixed to the chip, and measured at multiple flow rates, approximately 20%, 40%, and 60% of the maximum pressure for each chip. […] An average absolute viscosity and standard deviation was then calculated from at least these three measurements. The C & P viscometer was equipped with a CPE40 or CPE52 spindle (cone angle of 0.8° and 3.0°, respectively) and 0.50 mL samples were measured at multiple shear rates between 2 and 400 s^−1. […] An extrapolated zero-shear viscosity was then determined from a plot of dynamic viscosity versus shear rate for the samples measured on a DV2T cone and plate viscometer. The extrapolated zero-shear viscosities reported are the average and standard deviation of at least three measurements.
First, Polysorbate 80 was removed using DETERGENT-OUT® TWEEN® Medi Columns (G-Biosciences). […] The collected protein solution was freeze-dried. The dried protein cakes, containing protein and buffer salts or agent, were reconstituted to a final volume of 0.15-1.3 mL. […] Reported protein concentrations represent the range of all protein samples included in each Table or Figure. Specifically, reported values are the median plus or minus half the range. Extrapolated zero-shear using an experimentally determined extinction coefficient of 1.4 L/g·cm and viscosities reported were measured on a DV2T cone and plate viscometer.
The final concentration of CSAL upon reconstitution in an aqueous CSAL solution ranged from 0.25 M to 0.50 M.
Specifically, 20 mM solutions of the viscosity-lowering agents of interest were used for buffer exchange, and the lyophilized cakes were reconstituted to 0.25 M of each viscosity-lowering agent. […] The sample was first aliquoted. […] The dried protein cakes, containing protein and viscosity-lowering agent (and a negligible amount of buffer salts) were reconstituted to a final volume of approximately 0.10 mL and viscosity-lowering agent concentration as previously described.
First, Polysorbate was removed from the commercially obtained mAb solutions.
Specifically, 20 mM solutions of the salts of interest were used for buffer exchange, and the lyophilized cakes were reconstituted to contain 0.25 M of each agent. Viscosities were measured using either a RheoSense mVROC microfluidic viscometer equipped with an “A” or “B” chip or a DV2T cone and plate viscometer.
Subsequently, the aqueous drug product was purified, buffer exchanged, concentrated, dried, reconstituted, and analyzed as described in the same manner. Viscosities reported were measured on a RheoSense mVROC microfluidic viscometer.

[1] = 222 ± 5 mg/mL mAb, pH 7.0, 0.25M agent, 25° C.
[2] = 200 ± 5 mg/mL mAb, pH 7.0, 25° C., [Salt] 0.25 M of anion, C & P viscometer
[3] = 225 mg/mL mAb, agent […], 25° C.
[4] = 225 ± 5 mg/mL mAb, pH 7.0, 0.25M agent, 20° C.
[5] = 225 ± 5 mg/mL mAb, pH 7.0, 0.25M agent, 25° C.
[6] = 225 ± 5 mg/mL mAb, pH 7.0, 0.25M agent, 30° C.
[7] = 230 mg/mL mAb, agent […], 25° C.
[8] = 206 mg/mL mAb, agent […], 25° C.
[9] = 214 mg/mL mAb, agent […], 25° C.
[10] = 200 ± 5 mg/mL mAb, pH 7.0, 25° C., [Salt] […] of anion, C & P viscometer
[11] = 200 ± 5 mg/mL mAb, pH 7.0, 25° C., [Salt] 0.35 M of anion, C & P viscometer
[12] = 221 mg/mL mAb, […] agent, pH 7.0, 25° C., microfluidic
[13] = 228 ± 5 mg/mL mAb, agent 0.25 M, 25° C., pH 7.0

Compound: CSA-Na-Creatinine
Viscosity (biosimilar RITUXAN®; 190 mg/mL mAb, 0.3M agent): 33.3 ± 1.1 cP
Viscosity (biosimilar AVASTIN®; 202 mg/mL mAb, agent […], 25° C.): 38.4 ± 0.9 cP

Compound: NCCCC[C@H](N)C(=O)O [Lysine•HCl, reference compound]
Viscosity (biosimilar ERBITUX®; [1]): 128 ± 2 cP
Fold Reduction (biosimilar ERBITUX®; [1]): 8.8 fold
Viscosity (biosimilar AVASTIN®; [2]): 137 ± 2 cP

Compound: NCCCC[C@H](N)C(=O)O.O=S(=O)(O)c1ccccc1 [BSAL, benzenesulfonic acid lysine]
Viscosity (biosimilar ERBITUX®; [1]): 126 ± 1 cP
Viscosity (biosimilar ERBITUX®; [4]): 193 ± 0 cP
Viscosity (biosimilar ERBITUX®; [5]): 126 ± 1 cP
Viscosity (biosimilar ERBITUX®; [6]): 89.8 ± 0.8 cP
Viscosity (biosimilar AVASTIN®; 230 ± 5 mg/mL mAb, pH 7.0, […], 20° C.): 395 ± 3 cP
Viscosity (biosimilar AVASTIN®; 230 ± 5 mg/mL mAb, pH 7.0, […], 25° C.): 227 ± 5 cP

Compound: CSA-1-o-tolybiguanide
Viscosity (biosimilar RITUXAN®; 190 mg/mL mAb, […] agent): 40.4 ± 1.9 cP
Viscosity (biosimilar AVASTIN®; 228 mg/mL mAb, agent […], 25° C.): 121 ± 1 cP

Compound: Chlorotheophylline arginine
Viscosity (biosimilar AVASTIN®; [2]): 104.5 ± 6.5 cP

Compound: Ethandisulfonate diarginine
Viscosity (biosimilar AVASTIN®; [2]): 105 ± 4 cP
Viscosity (biosimilar AVASTIN®; [10]): 77.1 ± 0.3 cP

Compound: CC1(C)C2CCC1(CS(=O)(=O)O)C(=O)C2.OCCN(CCO)CCO (centres unmarked) [CSA Triethanolamine]
Viscosity (biosimilar AVASTIN®; 238 mg/mL mAb, agent […], 25° C.): 144 ± 1 cP

Compound: CSA dimethylpiperazine
Viscosity (biosimilar AVASTIN®; [2]): 47.4 ± 1.3 cP
Viscosity (biosimilar AVASTIN®; [11]): 51.7 ± 0.9 cP

Compound: CSA-Na-aminocyclohexane carboxylic acid
Viscosity (biosimilar RITUXAN®; 191 mg/mL mAb, […] agent): 61.3 ± 2.5 cP
Viscosity (biosimilar AVASTIN®; [3]): 69.2 ± 3.7 cP

Compound: CSA carnitine
Viscosity (biosimilar AVASTIN®; [2]): 72.4 ± 1.7 cP

Compound: C[C@H]1[C@H](NC(=O)/C(=N\OC(C)(C)C(=O)O)c2csc(N)n2)C(=O)N1S(=O)(=O)O [Aztreonam, reference compound]
Viscosity (biosimilar ERBITUX®; 179 mg/mL mAb, 0.02M agent, 25° C.): 256 ± 4 cP

Compound: naphthalenesulfonic acid arginine [NSAA]
Viscosity (biosimilar ERBITUX®; [1]): 69.4 ± 0.6 cP
Viscosity (biosimilar ERBITUX®; [4]): 103 ± 0 cP
Viscosity (biosimilar ERBITUX®; [5]): 69.4 ± 0.6 cP
Viscosity (biosimilar ERBITUX®; [6]): 60.9 ± 4.3 cP
Fold Reduction (biosimilar ERBITUX®; [1]): 16.3 fold

Compound: N=C(N)NCCC[C@H](N)C(=O)O.O=C(O)c1ccccc1 [Benzoic acid arginine]
Viscosity (biosimilar AVASTIN®; [2]): 51.4 ± 0.5 cP
Viscosity (biosimilar AVASTIN®; [10]): 52.2 ± 0.5 cP

Compound: CS(=O)(=O)O.N=C(N)NCCC[C@H](N)C(=O)O [MSA arginine]
Viscosity (biosimilar AVASTIN®; [2]): 93.1 ± 0.9 cP

Compound: Toluenesulfonic acid arginine
Viscosity (biosimilar AVASTIN®; [2]): 159 ± 5 cP

Compound: ClC=CC[N+]12CN3CN(CN(C3)C1)C2.[Cl-] [Quaternium 15]
Viscosity (biosimilar RITUXAN®; 221 mg/mL mAb, […] agent): 135 ± 5 cP

Compound: Cc1nccn1CCCN.Cl.Cl [APMI*2HCl, 1-(3-aminopropyl)-2-methyl-1H-imidazole dihydrochloride]
Viscosity-lowering effect as a function of agent concentration (biosimilar AVASTIN®; 0.10 vs 0.25 M APMI*2HCl, FIG. 7): viscosity-lowering effect was increased

Compound: [Cl-].[Na+] [NaCl, reference compound]
Viscosity (biosimilar AVASTIN®; [2]): 121 ± 8 cP

Compound: CC1(C)C2CCC1(CS(=O)(=O)O)C(=O)C2.N=C(N)NOCC[C@H](N)C(=O)O (centres unmarked) [CSA canavanine]
Viscosity (biosimilar AVASTIN®; [2]): 75.6 ± 3.0 cP
Viscosity (biosimilar AVASTIN®; [10]): 60.5 ± 0.6 cP

Compound: CSA betaine
Viscosity (biosimilar AVASTIN®; [2]): 66.0 ± 0.7 cP

Compound: Toluenesulfonic acid lysine
Viscosity (biosimilar AVASTIN®; [2]): 118 ± 1 cP

Compound: Sulfosalicylic acid dilysine
Viscosity (biosimilar AVASTIN®; [13]): 73.4 ± 0.4 cP

Compound: CCN(CC)CC(=O)Nc1c(C)cccc1C [Lidocaine HCl, reference compound]
Viscosity (biosimilar ERBITUX®; 223 mg/mL mAb, […] agent, 25° C.): 33.8 ± 0.4 cP
Viscosity (biosimilar AVASTIN®; 218 mg/mL mAb, agent […], 25° C.): 147 ± 15 cP
Viscosity (biosimilar AVASTIN®; 237 mg/mL mAb, agent […], 25° C.): 97.3 ± 1.8 cP

Next, values leading:

Viscosity (biosimilar ERBITUX®; 237 mg/mL mAb, 0.10M agent, 25° C.): 492 ± 9 cP
Viscosity (biosimilar AVASTIN®; [3]): 131 ± 4 cP
Compound: Cc1cc2nc3c(=O)[nH]c(=O)nc-3n(C[C@H](O)[C@H](O)[C@H](O)COP(=O)([O-])O)c2cc1C.[Na+] [Riboflavin-5-phosphate]

Viscosity (biosimilar RITUXAN®; 206 mg/mL mAb, […] agent): 65.1 ± 1.8 cP
Viscosity (biosimilar AVASTIN®; 229 mg/mL mAb, […] agent, pH 7.0, 25° C., microfluidic): 60.6 ± 1 cP
Compound: Cc1nnc(SCC2=C(C(=O)O)N3C(=O)[C@@H](NC(=O)Cn4cnnn4)[C@H]3SC2)s1 [Cefazolin, reference compound]

Viscosity (biosimilar RITUXAN®; 234 mg/mL mAb, […] agent): 111 ± 8 cP
Viscosity (biosimilar AVASTIN®; [7]): 147 ± 4 cP
Compound: OC[C@H]1O[C@H](O[C@]2(CCl)O[C@H](CCl)[C@@H](O)[C@@H]2O)[C@H](O)[C@@H](O)[C@H]1Cl [Sucralose]

Viscosity (biosimilar RITUXAN®; 191 mg/mL mAb, […] agent): 59.1 ± 0.7 cP
Viscosity (biosimilar AVASTIN®; 197 mg/mL mAb, agent […], 25° C.): 50 ± 1 cP
Viscosity (biosimilar AVASTIN®; [8]): 64.4 ± 1.4 cP
Compound: CSA-Tris

Viscosity (biosimilar AVASTIN®; [9]): 113 ± 1 cP
Compound: CC(=O)[N-]S(=O)(=O)c1ccc(N)cc1.[Na+] [Sulfacetamide-Na, reference compound]

Viscosity (biosimilar ERBITUX®; 194 mg/mL mAb, […] agent, 25° C.): 166 ± 8 cP
Compound: CO[C@@]1(NC(=O)Cc2cccs2)C(=O)N2C(C(=O)O)=C(COC(N)=O)CS[C@@H]21 [Cefoxitin sodium salt, reference compound]

Viscosity (biosimilar RITUXAN®; 194 mg/mL mAb, […] agent): 127 ± 2 cP
Viscosity (biosimilar AVASTIN®; [8]): 197 ± 5 cP
Compound: CCN1CCN(C(=O)N[C@@H](C(=O)N[C@@H]2C(=O)N3[C@@H]2SC(C)(C)[C@@H]3C(=O)O)c2ccccc2)C(=O)C1=O [Piperacillin sodium salt, reference compound]

Viscosity (biosimilar ERBITUX®; 189 mg/mL mAb, 0.02M agent, 25° C.): 284 ± 5 cP
Viscosity (biosimilar AVASTIN®; 210 mg/mL mAb, agent 0.02M, 25° C.): 121 ± 2 cP
Compound: Nc1ccn(C[C@@H](CO)OCP(=O)(O)O)c(=O)n1 [Cidofovir hydrate, reference compound]

Viscosity (biosimilar RITUXAN®; 199 mg/mL mAb, […] agent): 126 ± 3.3 cP
Viscosity (biosimilar AVASTIN®; 211 mg/mL mAb, agent […], 25° C.): 121 ± 6 cP
Compound: O=P1([O-])OP(=O)([O-])OP(=O)([O-])O1.[Na+].[Na+].[Na+] [Trimetaphosphate-3Na]

Viscosity (biosimilar ERBITUX®; 183 mg/mL mAb, […] agent, 25° C.): 54.1 ± 2.9 cP
Viscosity (biosimilar AVASTIN®; 201 mg/mL mAb, agent […], 25° C.): 108 ± 1 cP
Compound: CNC[C@H](O)c1cccc(O)c1 [Phenylephrine HCl, reference compound]

Viscosity (biosimilar ERBITUX®; 188 mg/mL mAb, […] agent, 25° C.): 119 ± 2 cP
Compound: O=C1NC(c2ccccc2)(c2ccccc2)C(=O)N1COP(=O)(O)O [Fosphenytoin disodium salt, reference compound]

Viscosity (biosimilar AVASTIN®; 212 mg/mL mAb, agent 0.25M, 25° C.): 93.2 ± 2.7 cP
Compound: CNS(=O)(=O)Cc1ccc2[nH]cc(CCN(C)C)c2c1 [Sumatriptan Succinate, reference compound]

Viscosity (biosimilar RITUXAN®; 207 mg/mL mAb, […] agent): 149 ± 13 cP
Viscosity (biosimilar AVASTIN®; [12]): 151 ± 5 cP
Viscosity (biosimilar AVASTIN®; 221 mg/mL mAb, […] agent, pH 7.0, 25° C., microfluidic, listed as Glucuronic acid-Tris): 151 ± 5.0 cP
Compound: NC(CO)(CO)CO.O=C[C@H](O)[C@@H](O)[C@H](O)[C@H](O)C(=O)O [Glucuronic acid-tris]

Viscosity (biosimilar ERBITUX®; 232 mg/mL mAb, […] agent, 25° C.): 292 ± 10 cP
Compound: NC(=O)c1cccnc1 [Nicotinamide]

Viscosity (biosimilar RITUXAN®; 191 mg/mL mAb, […] agent): 50.0 ± 3.8 cP
Viscosity (biosimilar AVASTIN®; [9]): 90.5 ± 1.8 cP
Compound: HEPES-Tris

Viscosity (biosimilar AVASTIN®; 210 mg/mL mAb, 0.25 M agent, 25° C., pH 7.0): 40.9 ± 0.5 cP
Viscosity (biosimilar AVASTIN®; [13]): 71.8 ± 3.2 cP
Compound: CSA 1-(3-aminopropyl)-2-methyl-1H-imidazole [CSAAPMI-2HCl]

Viscosity (biosimilar AVASTIN®; [12]): 68.5 ± 1.1 cP
Compound: Cl.[Cl-].c1cc[n+](-c2ccncc2)cc1 [N-(4-Pyridiyl)pyridinium Cl HCl]

Viscosity (biosimilar ERBITUX®; 186 mg/mL mAb, […] agent, 25° C.): 66.7 ± 1.0 cP
Compound: COc1c(N2C[C@@H]3CCCN[C@@H]3C2)c(F)cc2c(=O)c(C(=O)O)cn(C3CC3)c12 [Moxifloxacin HCl, reference compound]

Viscosity (biosimilar AVASTIN®; 227 mg/mL mAb, agent […], 25° C.): 107 ± 0 cP
Compound: Cc1ncc(CO)c(CO)c1O [Pyridoxine]

Viscosity (biosimilar RITUXAN®; 185 mg/mL mAb, […] agent): 46.8 ± 0.6 cP
Viscosity (biosimilar AVASTIN®; 223 mg/mL mAb, agent […], 25° C.): 129 ± 3 cP
Compound: Cc1cccc(C)c1NC(=O)C1CCCCN1C (centres unmarked) [Mepivacaine HCl, reference compound]

Viscosity (biosimilar AVASTIN®; 228 ± 5 mg/mL mAb, agent […], 25° C., pH 7.0): 83.7 ± 2.2 cP
Viscosity reduction (biosimilar AVASTIN®; ~230 mg/mL mAb, vs PB, Table 12): approximately 5 fold
Compound: CSAthiamine-2NaCl

Viscosity (biosimilar RITUXAN®; 194 mg/mL mAb, […] agent): 39.3 ± 0.4 cP
Viscosity (biosimilar AVASTIN®; [7]): 64.4 ± 1.6 cP
Compound: CCN(CC)CCNC(=O)c1cc(Cl)c(N)cc1OC [Metoclopramide HCl, reference compound]

Viscosity (biosimilar AVASTIN®; [2]): 85.5 ± 5.2 cP
Viscosity (biosimilar AVASTIN®; [11]): 65.6 ± 1.6 cP
Compound: diCSA cadaverine
